Data reported in patent US8192962B2, “Processes for detecting toxic substances” (Daikin Industries, Ltd., priority 2001, dated 2012).

Tested on: Stress protein genes
Test: DNA chip mRNA expression in yeast, stress protein genes (Table 6)
Type: cell-based, Saccharomyces cerevisiae S288C
Method in brief: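 S. cerevisiae S288C grown at 25° C. in YPD to log phase, then exposed 2 h to a toxicant at a growth-inhibiting, non-lethal concentration; untreated cells as control. Poly(A) mRNA reverse-transcribed with Cy3-dUTP or Cy5-dUTP, hybridized >12 h at 65° C. to whole-genome yeast DNA chip; value = fluorescence ratio treated/untreated.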

## CCCCCCCCCCCCOS(=O)(=O)[O-].[Na+] [(18), sodium lauryl sulfate]
Yeast gene YAL005C
  The level of expressed mRNA in the presence of chemical substance/The level of expressed mRNA in the absence of chemical substance: 0.5
Yeast gene YAL015C
  The level of expressed mRNA in the presence of chemical substance/The level of expressed mRNA in the absence of chemical substance: 1.2
Yeast gene YBL075C
  The level of expressed mRNA in the presence of chemical substance/The level of expressed mRNA in the absence of chemical substance: 0.7
Yeast gene YBL093C
  The level of expressed mRNA in the presence of chemical substance/The level of expressed mRNA in the absence of chemical substance: 1.3
Yeast gene YBR044C
  The level of expressed mRNA in the presence of chemical substance/The level of expressed mRNA in the absence of chemical substance: 1.3
Yeast gene YBR054W
  The level of expressed mRNA in the presence of chemical substance/The level of expressed mRNA in the absence of chemical substance: 0.7
Yeast gene YBR067C
  The level of expressed mRNA in the presence of chemical substance/The level of expressed mRNA in the absence of chemical substance: 0.4
Yeast gene YBR072W
  The level of expressed mRNA in the presence of chemical substance/The level of expressed mRNA in the absence of chemical substance: 2.2
Yeast gene YBR126C
  The level of expressed mRNA in the presence of chemical substance/The level of expressed mRNA in the absence of chemical substance: 1.3
Yeast gene YBR169C
  The level of expressed mRNA in the presence of chemical substance/The level of expressed mRNA in the absence of chemical substance: 1.6
Yeast gene YCL035C
  The level of expressed mRNA in the presence of chemical substance/The level of expressed mRNA in the absence of chemical substance: 4.2
Yeast gene YCR021C
  The level of expressed mRNA in the presence of chemical substance/The level of expressed mRNA in the absence of chemical substance: 0.8
Yeast gene YCR060W
  The level of expressed mRNA in the presence of chemical substance/The level of expressed mRNA in the absence of chemical substance: 1.7
Yeast gene YCR083W
  The level of expressed mRNA in the presence of chemical substance/The level of expressed mRNA in the absence of chemical substance: 1.3
Yeast gene YDL022W
  The level of expressed mRNA in the presence of chemical substance/The level of expressed mRNA in the absence of chemical substance: 1.4
Yeast gene YDL025C
  The level of expressed mRNA in the presence of chemical substance/The level of expressed mRNA in the absence of chemical substance: 1.4
Yeast gene YDR033W
  The level of expressed mRNA in the presence of chemical substance/The level of expressed mRNA in the absence of chemical substance: 1.0
Yeast gene YDR077W
  The level of expressed mRNA in the presence of chemical substance/The level of expressed mRNA in the absence of chemical substance: 1.1
Yeast gene YDR098C
  The level of expressed mRNA in the presence of chemical substance/The level of expressed mRNA in the absence of chemical substance: 1.2
Yeast gene YDR155C
  The level of expressed mRNA in the presence of chemical substance/The level of expressed mRNA in the absence of chemical substance: 2.5
Yeast gene YDR258C
  The level of expressed mRNA in the presence of chemical substance/The level of expressed mRNA in the absence of chemical substance: 1.3
Yeast gene YDR293C
  The level of expressed mRNA in the presence of chemical substance/The level of expressed mRNA in the absence of chemical substance: 1.3
Yeast gene YDR436W
  The level of expressed mRNA in the presence of chemical substance/The level of expressed mRNA in the absence of chemical substance: 1.2
Yeast gene YDR513W
  The level of expressed mRNA in the presence of chemical substance/The level of expressed mRNA in the absence of chemical substance: 3.2
Yeast gene YDR519W
  The level of expressed mRNA in the presence of chemical substance/The level of expressed mRNA in the absence of chemical substance: 2.4
Yeast gene YEL030W
  The level of expressed mRNA in the presence of chemical substance/The level of expressed mRNA in the absence of chemical substance: 0.6
Yeast gene YEL039C
  The level of expressed mRNA in the presence of chemical substance/The level of expressed mRNA in the absence of chemical substance: 1.1
Yeast gene YER042W
  The level of expressed mRNA in the presence of chemical substance/The level of expressed mRNA in the absence of chemical substance: 1.1
Yeast gene YER057C
  The level of expressed mRNA in the presence of chemical substance/The level of expressed mRNA in the absence of chemical substance: 1.8
Yeast gene YER103W
  The level of expressed mRNA in the presence of chemical substance/The level of expressed mRNA in the absence of chemical substance: 0.6
Yeast gene YER125W
  The level of expressed mRNA in the presence of chemical substance/The level of expressed mRNA in the absence of chemical substance: 1.0
Yeast gene YFL014W
  The level of expressed mRNA in the presence of chemical substance/The level of expressed mRNA in the absence of chemical substance: 8.8
Yeast gene YFL016C
  The level of expressed mRNA in the presence of chemical substance/The level of expressed mRNA in the absence of chemical substance: 0.9
Yeast gene YFL020C
  The level of expressed mRNA in the presence of chemical substance/The level of expressed mRNA in the absence of chemical substance: 0.9
Yeast gene YFR052W
  The level of expressed mRNA in the presence of chemical substance/The level of expressed mRNA in the absence of chemical substance: 1.9
Yeast gene YGL073W
  The level of expressed mRNA in the presence of chemical substance/The level of expressed mRNA in the absence of chemical substance: 1.2
Yeast gene YGL115W
  The level of expressed mRNA in the presence of chemical substance/The level of expressed mRNA in the absence of chemical substance: 1.2
Yeast gene YGL181W
  The level of expressed mRNA in the presence of chemical substance/The level of expressed mRNA in the absence of chemical substance: 1.3
Yeast gene YGR088W
  The level of expressed mRNA in the presence of chemical substance/The level of expressed mRNA in the absence of chemical substance: 2.0
Yeast gene YHL028W
  The level of expressed mRNA in the presence of chemical substance/The level of expressed mRNA in the absence of chemical substance: 2.5
Yeast gene YHL046C
  The level of expressed mRNA in the presence of chemical substance/The level of expressed mRNA in the absence of chemical substance: 0.9
Yeast gene YHR030C
  The level of expressed mRNA in the presence of chemical substance/The level of expressed mRNA in the absence of chemical substance: 1.8
Yeast gene YHR057C
  The level of expressed mRNA in the presence of chemical substance/The level of expressed mRNA in the absence of chemical substance: 1.3
Yeast gene YHR104W
  The level of expressed mRNA in the presence of chemical substance/The level of expressed mRNA in the absence of chemical substance: 1.9
Yeast gene YIL011W
  The level of expressed mRNA in the presence of chemical substance/The level of expressed mRNA in the absence of chemical substance: 0.8
Yeast gene YIL033C
  The level of expressed mRNA in the presence of chemical substance/The level of expressed mRNA in the absence of chemical substance: 1.2
Yeast gene YIR037W
  The level of expressed mRNA in the presence of chemical substance/The level of expressed mRNA in the absence of chemical substance: 2.9
Yeast gene YIR038C
  The level of expressed mRNA in the presence of chemical substance/The level of expressed mRNA in the absence of chemical substance: 2.0
Yeast gene YJL128C
  The level of expressed mRNA in the presence of chemical substance/The level of expressed mRNA in the absence of chemical substance: 1.0
Yeast gene YJL158C
  The level of expressed mRNA in the presence of chemical substance/The level of expressed mRNA in the absence of chemical substance: 1.4
Yeast gene YJL159W
  The level of expressed mRNA in the presence of chemical substance/The level of expressed mRNA in the absence of chemical substance: 0.9
Yeast gene YJL165C
  The level of expressed mRNA in the presence of chemical substance/The level of expressed mRNA in the absence of chemical substance: 1.8
Yeast gene YJR045C
  The level of expressed mRNA in the presence of chemical substance/The level of expressed mRNA in the absence of chemical substance: 0.9
Yeast gene YJR090C
  The level of expressed mRNA in the presence of chemical substance/The level of expressed mRNA in the absence of chemical substance: 1.0
Yeast gene YKL161C
  The level of expressed mRNA in the presence of chemical substance/The level of expressed mRNA in the absence of chemical substance: 1.9
Yeast gene YKL163W
  The level of expressed mRNA in the presence of chemical substance/The level of expressed mRNA in the absence of chemical substance: 1.0
Yeast gene YKL164C
  The level of expressed mRNA in the presence of chemical substance/The level of expressed mRNA in the absence of chemical substance: 0.8
Yeast gene YKL210W
  The level of expressed mRNA in the presence of chemical substance/The level of expressed mRNA in the absence of chemical substance: 1.1
Yeast gene YKR053C
  The level of expressed mRNA in the presence of chemical substance/The level of expressed mRNA in the absence of chemical substance: 2.4
Yeast gene YLL024C
  The level of expressed mRNA in the presence of chemical substance/The level of expressed mRNA in the absence of chemical substance: 0.6
Yeast gene YLL026W
  The level of expressed mRNA in the presence of chemical substance/The level of expressed mRNA in the absence of chemical substance: 2.5
Yeast gene YLL039C
  The level of expressed mRNA in the presence of chemical substance/The level of expressed mRNA in the absence of chemical substance: 2.1
Yeast gene YLL060C
  The level of expressed mRNA in the presence of chemical substance/The level of expressed mRNA in the absence of chemical substance: 2.3
Yeast gene YLR006C
  The level of expressed mRNA in the presence of chemical substance/The level of expressed mRNA in the absence of chemical substance: 1.0
Yeast gene YLR109W
  The level of expressed mRNA in the presence of chemical substance/The level of expressed mRNA in the absence of chemical substance: 1.2
Yeast gene YLR259C
  The level of expressed mRNA in the presence of chemical substance/The level of expressed mRNA in the absence of chemical substance: 1.0
Yeast gene YML007W
  The level of expressed mRNA in the presence of chemical substance/The level of expressed mRNA in the absence of chemical substance: 1.4
Yeast gene YML070W
  The level of expressed mRNA in the presence of chemical substance/The level of expressed mRNA in the absence of chemical substance: 1.3
Yeast gene YMR021C
  The level of expressed mRNA in the presence of chemical substance/The level of expressed mRNA in the absence of chemical substance: 3.4
Yeast gene YMR173W
  The level of expressed mRNA in the presence of chemical substance/The level of expressed mRNA in the absence of chemical substance: 1.8
Yeast gene YMR186W
  The level of expressed mRNA in the presence of chemical substance/The level of expressed mRNA in the absence of chemical substance: 1.1
Yeast gene YNL064C
  The level of expressed mRNA in the presence of chemical substance/The level of expressed mRNA in the absence of chemical substance: 0.7
Yeast gene YNL160W
  The level of expressed mRNA in the presence of chemical substance/The level of expressed mRNA in the absence of chemical substance: 1.0
Yeast gene YNL241C
  The level of expressed mRNA in the presence of chemical substance/The level of expressed mRNA in the absence of chemical substance: 1.0
Yeast gene YNR076W
  The level of expressed mRNA in the presence of chemical substance/The level of expressed mRNA in the absence of chemical substance: 0.8
Yeast gene YOL064C
  The level of expressed mRNA in the presence of chemical substance/The level of expressed mRNA in the absence of chemical substance: 1.3
Yeast gene YOL161C
  The level of expressed mRNA in the presence of chemical substance/The level of expressed mRNA in the absence of chemical substance: 1.0
Yeast gene YOR008C
  The level of expressed mRNA in the presence of chemical substance/The level of expressed mRNA in the absence of chemical substance: 1.3
Yeast gene YOR009W
  The level of expressed mRNA in the presence of chemical substance/The level of expressed mRNA in the absence of chemical substance: 0.8
Yeast gene YOR010C
  The level of expressed mRNA in the presence of chemical substance/The level of expressed mRNA in the absence of chemical substance: 0.6
Yeast gene YOR027W
  The level of expressed mRNA in the presence of chemical substance/The level of expressed mRNA in the absence of chemical substance: 0.8
Yeast gene YOR208W
  The level of expressed mRNA in the presence of chemical substance/The level of expressed mRNA in the absence of chemical substance: 1.6
Yeast gene YPL059W
  The level of expressed mRNA in the presence of chemical substance/The level of expressed mRNA in the absence of chemical substance: 1.3
Yeast gene YPL106C
  The level of expressed mRNA in the presence of chemical substance/The level of expressed mRNA in the absence of chemical substance: 0.5
Yeast gene YPL140C
  The level of expressed mRNA in the presence of chemical substance/The level of expressed mRNA in the absence of chemical substance: 1.4
Yeast gene YPL194W
  The level of expressed mRNA in the presence of chemical substance/The level of expressed mRNA in the absence of chemical substance: 0.8
Yeast gene YPL223C
  The level of expressed mRNA in the presence of chemical substance/The level of expressed mRNA in the absence of chemical substance: 1.3
Yeast gene YPL240C
  The level of expressed mRNA in the presence of chemical substance/The level of expressed mRNA in the absence of chemical substance: 1.0
Yeast gene YPR005C
  The level of expressed mRNA in the presence of chemical substance/The level of expressed mRNA in the absence of chemical substance: 1.1
Yeast gene YPR026W
  The level of expressed mRNA in the presence of chemical substance/The level of expressed mRNA in the absence of chemical substance: 1.3
